These results are taken from patent publication US20260283959A1, “APPLICATION OF […] POWDER INHALER IN PREPARATION OF MEDICAMENT FOR TREATING ACUTE LUNG INJURY” (Anhui University of Chinese Medicine, priority 2025, published 2026).

Molecules are shown by their SMILES. ≈ marks a conversion by molar mass, not a printed value. Where two headings read alike, the source gives them in different places.

Data set [1] can be described thus: Solubility of synephrine API in different solvents by HPLC. Format: physicochemical. As to the method:
Column: Agilent C18 (250 mm×4.6 mm, 5 μm) column; mobile phase: 0.1% formic acid (A)-acetonitrile (B); detection wavelength: 273 nm; flow rate: 1 mL/min; column temperature: 30° C.; injection volume: 10 μL; isocratic elution: 1 min to 10 min; 97% A.
Excess synephrine API was weighed and placed in an EP tube. Then, 1.00 mL of each of the following solutions was added: water, anhydrous ethanol, isopropanol, ethyl acetate, n-butanol, n-octanol, acetonitrile, and n-hexane. The mixture was sonicated (300 W, 40 kHz) until no further dissolution occurred. The tube was then centrifuged at 6000 r min^−1 for 15 min, filtered through a 0.22 μm microporous membrane, and the filtrate was diluted with methanol and analyzed under liquid chromatography conditions. The solubility of synephrine in different solvents was calculated.

Data set [2] in a line: Hygroscopicity by dynamic vapor sorption (DVS). Format: physicochemical. As to the method: The hygroscopicity of synephrine API and DPI was analyzed using a dynamic vapor sorption (DVS) analyzer. The experimental temperature was set to room temperature (25° C.), the carrier gas was nitrogen, and the total gas flow rate was 200 mL/min. Samples were weighed and placed on the balance tray of the DVS analyzer. The relative humidity (RH) change program was set as required, and the humidity equilibrium time was also set.

Data set [3] can be described thus: In vitro pulmonary deposition, next-generation pharmaceutical impactor (NGI). Format: physicochemical. The settings on record: 75 L/min, 3.2 s, 10 mg capsules. The text has this:
The in vitro pulmonary deposition of synephrine DPI samples was investigated using the next-generation pharmaceutical impactor (NGI). The various components of the instrument were connected sequentially, including the NGI device, an adapter, an artificial throat, a pre-separator, and a collection tray. After installation, the airtightness and uniformity of the device were checked. The gas flow rate was 75 L/min. At this gas flow rate, the cutoff values Da of each stage of the collection tray were as follows: S1=7.145 μm, S2=3.971 μm, S3=2.522 μm, S4=1.495 μm, S5=0.835 μm, S6=0.481 μm, S7=0.293 μm, and the micro-orifice collector (MOC)=0.104 μm.
The specific method was as follows: 10 mg synephrine micropowder and API were added to No. 3 hydroxypropyl methylcellulose capsules, respectively, and then loaded into a single-capsule inhalation device. After connecting to an NGI, the measurement was performed. Five capsules were inhaled each time. The inhalation flow rate was 75 L/min, and the inhalation duration was 3.2 s. Drug powder deposited at each stage of the NGI was collected using ultrapure water. The synephrine content was determined under UV conditions, and the FPF and respirable fraction (RF) were calculated.

For data set [4], the system named is LPS-induced RAW264.7 cells. In words: LPS-induced RAW264.7 cellular inflammation model, ELISA of inflammatory mediators. In kind it is cell-based. The settings on record: Mus musculus, LPS-stimulated RAW264.7. As to the method:
RAW264.7 cells in logarithmic growth phase were seeded at 100 μL per well in a 96-well plate and cultured at 37° C. and 5% CO2 for 24 hours. The supernatant was aspirated and discarded. 100 μL of medium containing synephrine at an appropriate concentration was added to each well for pretreatment for 1 h, followed by the addition of LPS-containing medium. The cells were then co-incubated with the test substance for 24 hours.
Based on the CCK-8 assay results, RAW264.7 cells in logarithmic growth phase were seeded in 96-well plates and divided into the control group, LPS group, LPS+SYN group, and LPS+SYN-DPI group. A cellular inflammation model was established. After culturing for 24 h, the supernatant from each well was collected and centrifuged at 3500 rpm for 10 min. The supernatant was collected and the subsequent procedures were strictly performed according to the ELISA kit instructions. The absorbance was measured at 450 nm using a microplate reader, and the contents of interleukin (IL)-1B, IL-6, tumor necrosis factor (TNF)-α, and nitric oxide (NO) were calculated.
(In general: ELISA stands for enzyme-linked immunosorbent assay.)

In data set [5] the test system is LPS-induced ALI model in rats. In words: Lung wet-to-dry weight ratio in LPS-induced rat ALI model. In kind it is in vivo. The settings on record: SYN 9 mg/kg gavage; SYN-DPI 4.5-18 mg/kg inhalation; 6 h after administration. The procedure: (§1) Male SD rats were acclimatized for one week, and an ALI model in rats was established using tracheal instillation of LPS. The specific modeling steps were as follows: the rats were first anesthetized with isoflurane, then the rats were fixed in a supine position to facilitate intratracheal administration to the lungs. LPS (8 mg/kg) was nebulized into the alveoli using a microsprayer. The microsprayer was then removed, the animal was placed in a vertical position, and gently rotated for 30 seconds to ensure even distribution of LPS throughout the lungs.
(§2) Referring to relevant literature on synephrine, the maximum human dose of synephrine is 100 mg. Based on the clinically equivalent dose, the dose administered to the rats via gavage was 9 mg/kg, and the low-dose inhalation group was 4.5 mg/kg.
After instillation of the left lung of the rats, the left and right lungs were collected, washed with physiological saline, and dried. The lower lobe of the left lung was used to determine the wet-to-dry weight ratio of the rat lung tissue. […]
The lower lobe of the left lung of the rat was collected, surface blood was removed, surface moisture was wiped off, and the lobe was weighed. The wet weight was recorded. The lobe was then dried in a 60° C. oven for 24 hours, and the dry weight was recorded. The degree of pulmonary edema was evaluated by calculating the lung wet/dry weight ratio. […]

In data set [6] the test system is LPS-induced ALI model in rats. The data set can be described thus: HE and Masson staining of lung tissue in LPS-induced rat ALI model. Format: in vivo. As to the method: as §1, §2
Lung tissue fixed in 4% paraformaldehyde was dehydrated, routinely embedded in paraffin, and prepared into 5 μm sections. After dewaxing, the sections were routinely stained with HE, dehydrated, mounted, and observed under a microscope to examine the structure and morphological characteristics of the rat lung tissue in each group.
The sections were routinely dewaxed to water. Hydrophobic zones were drawn, and Bouin's solution was added dropwise. The sections were then covered and incubated at 37° C. After incubation, they were rinsed with running water until the yellow color disappeared. […]

The test system of data set [7] is LPS-induced ALI model in rats. The data set can be described thus: Serum inflammatory cytokine levels (ELISA) in LPS-induced rat ALI model. The following applies: P<0.0001; 6 h after administration. In kind it is in vivo. The procedure:
as §1, §2
Six hours after drug administration, rats were anesthetized by intraperitoneal injection of sodium pentobarbital. […]
Rat serum was collected, and the levels of TNF-α, IL-6, IL-8, IL-1β, and IL-1α were measured separately according to the rat ELISA kit instructions. The OD value was measured at 450 nm using a microplate reader. A standard curve was plotted with the concentrations of TNF-α, IL-8, IL-6, IL-1β, and IL-1α standards on the x-axis and the absorbance values on the y-axis. The concentrations of TNF-α, IL-6, IL-8, IL-1β, and IL-1α in serum were calculated based on the standard curve.

A short description of data set [8]: Pharmacokinetic study in rats, plasma synephrine by LC-MS/MS. Format: in vivo, rat. The settings on record: for Cmax: rat plasma. The procedure:
SPF-grade male SD rats, weighing 180-220 g, were housed under identical experimental conditions: temperature (22±1)° C., relative humidity (55±5) %, and a 12-hour light/dark cycle. They had free access to food and water and underwent a one-week acclimatization period before the experiment.
Column: Hypersil GOLD C8 (100 mm×2.1 mm; 3 μm); Mobile phase: Phase A: 0.1% formic acid aqueous solution, Phase B: acetonitrile; Flow rate: 0.3 mL/min; Column temperature: 40° C.; Injection volume: 2 μL; Gradient elution program: 0-1 min, 5% B; 1-4 min, 5%-90% B; 4-5 min, 90%-5% B.
Mass spectrometry was performed in electrospray ionization (ESI) positive ion scanning mode, using multiple reaction monitoring (MRM) detection mode. The collision gas was high-purity nitrogen; capillary voltage: 3.5 kV; nebulizer pressure: 45 psi; desiccator temperature: 300° C.; drying gas flow rate: 5 L/min (N2); sheath gas temperature: 250° C.; sheath gas flow rate: 11 L/min (N2).
Experimental animals were randomly divided into three groups: (1) tail vein injection group, (2) pulmonary inhalation group, and (3) gavage group, with 5 animals in each group. Animals were fasted for 12 h before administration but had free access to water.
Rats were fasted for 12 hours before the experiment but were allowed free access to water. The rats were weighed to calculate the dosage and numbered. After administration, 0.2 mL of blood was collected from the orbital vein at time points of 2 min, 5 min, 10 min, 15 min, 30 min, 1 h, 2 h, 3 h, 4 h, and 6 h. The blood samples were placed in an EP tube containing heparin sodium and were centrifuged at 3500 rpm for 15 min. The supernatant plasma was separated and stored at −80° C. freezer.
190 μL of a rat plasma sample was accurately pipetted into an EP tube. Then, 10 μL of an internal standard solution was added, and the sample was vortexed for 60 s. Next, 400 μL of acetonitrile was added, and the sample was vortexed for 60 s to precipitate proteins. The sample was then centrifuged at 10000 rpm for 15 mins, and the supernatant was passed through a 0.22 μm microporous filter membrane. Finally, the filtered sample was placed in a glass insert for LC-MS/MS analysis.

Data set [9] concerns LPS-induced ALI model in rats. In words: Total protein content in BALF (BCA assay) of ALI rats. In kind it is in vivo, rat. The following applies: 6 h after administration. As to the method: as §1, §2
After blood collection, the rats were placed in a supine position on the operating table until their hearts stopped beating. […]
This study used the bicinchoninic acid (BCA) assay to determine the total protein content in BALF. The tissue weight was accurately measured, and physiological saline was added according to the weight-to-volume ratio. […] The test solution was added sequentially according to the protein quantification kit instructions. The absorbance was measured at 562 nm using a microplate reader, and the protein concentration in BALF was calculated.

Usually solubility stands for the dissolved amount per volume that the medium holds. As a reminder, the inhibition is the percentage by which the read-out fell short of the control. As a reminder, the Cmax is the highest concentration seen after dosing. One may read the AUC(0-inf) as total exposure, with the tail of the curve extrapolated. By half-life is commonly meant how long it takes for the measured level to halve. As a reminder, the AUC(0-t) is the area under the concentration-time curve up to a stated or last time point. `CNCC(O)c1ccc(O)cc1` (stereo not drawn) [SYN, Synephrine]: the solubility is 10620 ± 60 µg/mL (≈ 63.5 mM) in data set [1] (organic solvent or mixture, solvent: Acetonitrile); 17200 ± 270 µg/mL (≈ 103 mM) in data set [1] (organic solvent or mixture, solvent: Anhydrous Ethanol); 640 ± 10 µg/mL (≈ 3.83 mM) in data set [1] (organic solvent or mixture, solvent: Ethyl Acetate); 7060 ± 120 µg/mL (≈ 42.2 mM) in data set [1] (organic solvent or mixture, solvent: Isopropanol); 8760 ± 20 µg/mL (≈ 52.4 mM) in data set [1] (organic solvent or mixture, solvent: n-Butanol); 3660 ± 10 µg/mL (≈ 21.9 mM) in data set [1] (organic solvent or mixture, solvent: n-Octanol). In data set [1] (solvent: Water), this molecule came in with a solubility of 13440 ± 20 µg/mL (≈ 80.4 mM). Besides, in data set [1] (solvent: n-hexane), the “Solubility (in words)” value is reported as “almost insoluble”. Besides, in [2] (90% RH), the “hygroscopicity class (Chinese Pharmacopoeia 2020, 9103 guidelines)” value is given as “no or almost no hygroscopicity (hygroscopic weight gain less than 0.2%)”. Moreover, in data set [2] (90% RH, 25° C.), the “maximum moisture adsorption / moisture absorption weight gain” value turned out to be 0.12%. Besides, in [2] (normal storage conditions (60% RH), 25° C.), the “moisture absorption weight gain percentage” value is recorded as “less than 0.2%”. In addition, in data set [3], the “effective in vitro lung deposition rate” value is 2.25%. In [3], the emptying rate is recorded as 90.98%. Also, the “fine particle fraction (FPF)” value in data set [3] is 2.69%. The “respirable fraction (RF)” value in data set [3] amounted to 41.26%. Moreover, the inhibition at 200 µM in data set [4] (200 μM, read-out: inhibition of NO production) turned out to be 16.1%. Also, the inhibition at 400 µM in [4] (400 μM, read-out: inhibition rate of IL-6 production) turned out to be 23.3%. The “wet-to-dry weight ratio of rat lungs compared to the model group” value in [5] is recorded as “significant reduction”. Further, the “pathological changes, SYN group compared with low-dose SYN-DPI group” value in [6] (SYN 9 mg/kg gavage vs SYN-DPI 4.5 mg/kg inhalation) was “no significant difference in pathological changes”. For the same molecule, the “expression levels of serum inflammatory cytokines (IL-1α, IL-1β, IL-6, IL-8, TNF-α) compared to the model group” value in [7] is reported as “significantly decreased”. The maximum concentration (Cmax) in [8] (iv, injection group (tail vein)) came to 1030 ng/mL; in [8] (po, gavage group), 302 ng/mL. In data set [8] (plasma, iv, rat, injection group (tail vein)), this molecule showed a total exposure AUC(0-inf) of 1540 ng·h/mL. Moreover, the half-life was 5.33 h in [8] (plasma, iv, rat, injection group (tail vein), read-out: half-life (t½)) and 2.29 h in data set [8] (plasma, po, rat, gavage group, read-out: half-life t½). Moreover, the bioavailability in [8] (plasma, po, rat, gavage group, read-out: AUC(0-∞) as % of the injection group) stood at 64.5%. Besides, in data set [8] (plasma, po, rat, gavage group, read-out: area-under-the-curve (AUC)(0-t)), the exposure AUC(0-t) turned out to be 876 ng·h/mL. The “Cmax as % of the injection group” value in data set [8] (rat, gavage group) amounted to 29.24%. The “half-life (t½) as % of the injection group” value in data set [8] (rat, gavage group) is given as 43.01%.
As to `C[C@@H]1C[C@H]2[C@@H]3CCC4=CC(=O)C=C[C@]4(C)[C@@]3(F)[C@@H](O)C[C@]2(C)[C@@]1(O)C(=O)CO` [Dex], the “pathological damage of rat lung tissue (HE, Masson)” value in data set [6] (Dex group, 3 mg/kg gavage) is reported as “significantly alleviated”. For the same molecule, the “total protein content in BALF compared with the LPS group” value in data set [9] is “significantly improve alveolar interstitial space”. Moreover, the “expression levels of serum inflammatory cytokines (IL-1α, IL-1β, IL-6, IL-8, TNF-α) compared to the model group” value in [7] is recorded as “significantly decreased”.
